Measured values from US20250171459A1, “2-METHYL-4',5'-DIHYDROSPIRO[PIPERIDINE-4,7'-THIENO[2,3-C]PYRAN] DERIVATIVES AS INHIBITORS OF APOL1 AND METHODS OF USING SAME” (Vertex Pharmaceuticals Incorporated, priority 2022, published 2025).

Target: T1, APOL1 (Homo sapiens, UniProt O14791)
T1 sequence (O14791 1-398 S342G/I384M): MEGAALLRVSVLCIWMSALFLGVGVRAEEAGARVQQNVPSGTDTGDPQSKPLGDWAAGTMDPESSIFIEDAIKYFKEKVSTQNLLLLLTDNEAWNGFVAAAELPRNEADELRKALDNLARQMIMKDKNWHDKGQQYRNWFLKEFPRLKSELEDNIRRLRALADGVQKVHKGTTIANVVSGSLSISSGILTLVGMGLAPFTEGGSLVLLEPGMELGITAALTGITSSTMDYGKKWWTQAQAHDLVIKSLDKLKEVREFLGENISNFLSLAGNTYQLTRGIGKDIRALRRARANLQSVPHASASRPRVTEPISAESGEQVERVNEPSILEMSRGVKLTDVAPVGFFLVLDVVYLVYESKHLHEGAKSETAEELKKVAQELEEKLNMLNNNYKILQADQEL
Experiment: MultiTox-Fluor Multiplex Cytotoxicity Assay in tet-inducible APOL1 T-REx-HEK293 cells (cell rescue, ratio of dead to live cells)
Assay type: cell-based
Conditions: tet-inducible transgenic APOL1 T-REx-HEK293 cell lines, 50 ng/mL tet, 24 hours; read-out: IP50 (i.e., IC50 for cell proliferation)
Outline: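 T-REx-HEK293 cells with tet-inducible APOL1 were treated with compound (10 μM top, 10-point 3-fold dilution, duplicate) plus 50 ng/mL tetracycline for 24 h at 37° C, in DMEM with 2% tet-free FBS. MultiTox-Fluor protease signals gave a dead/live ratio, normalized to no tet (100% viability) and tet alone (0%).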

| SMILES | IC50 [nM] |
| --- | --- |
| Cc1cc2c(s1)[C@]1(CCN(Cc3cnn(CCS(C)(=O)=O)c3)[C@@H](C)C1)OCC2(O)C(F)F (stereo partly drawn) [Compound 1031, (2′S, 7R)-4-(difluoromethyl)-2,2′-dimethyl-1′-[[1-(2-methylsulfonylethyl)pyrazol-4-yl]methyl]spiro[5H-thieno[2,3-c]pyran-7,4′-piperidine]-4-ol] | < 100 |
| C[C@H]1C[C@@]2(CCN1Cc1cnn(C[C@H](O)CO)c1)OC[C@@H](O)c1cc(C(F)(F)F)sc12 [Compound 968] | < 100 |
| CCc1cc2c(s1)CCO[C@@]21CCN(Cc2cn(CC(CO)OC)nn2)[C@@H](C)C1 (stereo partly shown) [Compound 139] | < 100 |
| CCc1cc2c(s1)CCO[C@@]21CCN(CC2CN(C(=O)CCS(C)(=O)=O)C2)[C@@H](C)C1 [Compound 454] | 100 to 500 |
| CCc1cc2c(s1)CCO[C@@]21CCN(CC(O)CC(F)(F)F)[C@@H](C)C1 (stereo partly shown) [Compound 238] | 100 to 500 |
| CCc1cc2c(s1)CCO[C@@]21CCN(C[C@H]2C[C@@H](NC(=O)CS(C)(=O)=O)C2)[C@@H](C)C1 [Compound 343] | < 100 |
| CCc1cc2c(s1)CCOC21CCN(Cc2cn(CCC(N)=O)nn2)CC1 [Compound 1114] | 500 to 1000 |
| C[C@H]1C[C@@]2(CCN1Cc1cnn(CC3(O)CCS(=O)(=O)CC3)c1)OC[C@@H](O)c1cc(C(F)(F)F)sc12 [Compound 974] | < 100 |
| CCc1cc2c(s1)CCOC21CCN(Cc2cn(CC(O)COC)nn2)C(C)C1 (stereo not shown) [Compound 138] | < 100 |
| CC(=O)Nc1ccc(CN2CC[C@]3(C[C@@H]2C)OCCc2cc(Cl)sc23)cc1 [Compound 635] | < 100 |
| Cc1cc(CN2CC[C@]3(C[C@@H]2C)OC[C@H](O)c2cc(Cl)sc23)nn1C [Compound 781] | 500 to 1000 |
| C[C@H]1C[C@@]2(CCN1CC(O)c1ccc(F)cc1)OCCc1cc(CC(F)F)sc12 (stereo partly shown) [Compound 602] | < 100 |
| CCc1cc2c(s1)CCOC21CCN(Cc2ccc(NC3CN(S(C)(=O)=O)C3)nc2)[C@@H](C)C1 (stereo partly shown) [Compound 216] | < 100 |
| COc1ccc(CN2CC[C@]3(C[C@@H]2C)OCCc2c3sc(Cl)c2CO)cc1OCC(N)=O [Compound 744] | < 100 |
| C[C@H]1C[C@@]2(CCN1C1CCCC1O)OCCc1cc(C(F)(F)F)sc12 (stereo partly drawn) [Compound 865, 2-[(2′S,7R)-2′-methyl-2-(trifluoromethyl)spiro[4,5-dihydrothieno[2,3-c]pyran-7,4′-piperidine]-1′-yl]cyclopentanol] | 100 to 500 |
| C[C@H]1C[C@@]2(CCN1Cc1cnn(C)c1)OCC(O)(c1ccccc1)c1cc(Cl)sc12 (stereo partly drawn) [Compound 850, (2′S,7R)-2-chloro-2′-methyl-1′-[(1-methylpyrazol-4-yl)methyl]-4-phenyl-spiro[5H-thieno[2,3-c]pyran-7,4′-piperidine]-4-ol] | 100 to 500 |
| CNS(=O)(=O)CCn1cc(CN2CC[C@]3(C[C@@H]2C)OCCc2c3sc(C(F)(F)F)c2CO)cn1 [Compound 916] | < 100 |
| C[C@H]1C[C@@]2(CCN1Cc1cnn(CCCC(N)=O)c1)OCCc1c2sc(C(F)(F)F)c1CO [Compound 898] | < 100 |
| C[C@H]1C[C@@]2(CCN1Cc1cnn(CC3(C)COC3)c1)OCCc1cc(Cl)sc12 [Compound 633] | < 100 |
| CCc1cc2c(s1)CCO[C@@]21CCN(C[C@H]2C[C@@H](NC(=O)CN3CCc4ccccc43)C2)[C@@H](C)C1 [Compound 337] | < 100 |
| C[C@H]1C[C@@]2(CCN1Cc1cnn(Cc3cccnc3)c1)OCCc1cc(Cl)sc12 [Compound 701] | < 100 |
| CC(=O)N(C)C1CO[C@@]2(CCN(Cc3cnn(CCS(C)(=O)=O)c3)[C@@H](C)C2)c2sc(Cl)cc21 (stereo partly drawn) [Compound 857, N-[(2′S, 7R)-2-chloro-2′-methyl-1′-[[1-(2-methylsulfonylethyl)pyrazol-4-yl]methyl]spiro[4,5-dihydrothieno[2,3-c]pyran-7,4′-piperidine]-4-yl]-N-methyl-acetamide] | < 100 |
